A value given as a limit tells only on which side of the number the result lay.

The experiment addresses GST-Bcl-2 (Homo sapiens, UniProt P10415). In words: Time Resolved-Fluorescence Resonance Energy Transfer (TR-FRET) Bcl-2 binding assay. The settings on record: competition with F-Bak peptide probe (100 nM); GST-Bcl-2 1 nM; Tb-anti-GST 1 nM; 3 hours at room temperature; Wang's equation. How it is done:
Determination of the utility of compounds having Formula (I) as binders to and inhibitors of anti-apoptotic Bcl-2 proteins was performed using the Time Resolved-Fluorescence Resonance Energy Transfer (TR-FRET) Assay. Tb-anti-GST antibody was purchased from Invitrogen (Catalog No. PV4216).
Representative compounds were serially diluted in dimethyl sulfoxide (DMSO) starting at 50 μM (2× starting concentration; 10% DMSO) and 10 μL were transferred into a 384-well plate. The samples are then mixed on a shaker for 1 minute and incubated for an additional 3 hours at room temperature. For each assay, the probe/antibody and protein/probe/antibody were included on each assay plate as negative and positive controls, respectively. Fluorescence was measured on the Envision (Perkin Elmer) using a 340/35 nm excitation filter and 520/525 (F-Bak peptide) and 495/510 nm (Tb-labeled anti-Histidine antibody) emission filters.
The samples were then mixed on a shaker for 1 minute and incubated for an additional 3 hours at room temperature. For each assay, the probe/antibody and protein/probe/antibody were included on each assay plate as negative and positive controls, respectively. Fluorescence was measured on the Envision (Perkin Elmer) using a 340/35 nm excitation filter and 520/525 (F-Bak peptide) and 495/510 nm (Tb-labeled anti-Histidine antibody) emission filters.
The inhibition constant (Ki) is the dissociation constant of an enzyme-inhibitor complex or a protein/small molecule complex, wherein the small molecule is inhibiting binding of one protein to another protein. So a large Ki value indicates a low binding affinity and a small Ki value indicates a high binding affinity.

Sequence of GST-Bcl-2 (P10415 whole entry): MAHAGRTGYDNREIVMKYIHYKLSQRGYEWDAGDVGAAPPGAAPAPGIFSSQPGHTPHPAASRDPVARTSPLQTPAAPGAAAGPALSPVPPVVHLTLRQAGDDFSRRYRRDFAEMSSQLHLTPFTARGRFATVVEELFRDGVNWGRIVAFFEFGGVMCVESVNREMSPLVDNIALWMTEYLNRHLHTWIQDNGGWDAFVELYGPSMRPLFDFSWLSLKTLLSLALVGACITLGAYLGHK

For `CC1(C)CC(c2ccc(Cl)cc2)=C(CN2CCN(c3ccc(C(=O)NS(=O)(=O)c4ccc(OCC5(F)CCOCC5)c(Cl)c4)c(Oc4cc5cc[nH]c5cc4F)c3)CC2)CO1` [Example 413, N-({3-chloro-4-[(4-fluorotetrahydro-2H-pyran-4-yl)methoxy]phenyl}sulfonyl)-4-(4-{[4-(4-chlorophenyl)-6,6-dimethyl-5,6-dihydro-2H-pyran-3-yl]methyl}piperazin-1-yl)-2-[(6-fluoro-1H-indol-5-yl)oxy]benzamide], the affinity corresponds to a Ki of 0.739 nM. This lies in the sub-nanomolar range.

On to `Cn1c(=O)[nH]c2cccc(Oc3cc(N4CCN(CC5=C(c6ccc(Cl)cc6)CC(C)(C)CC5)CC4)ccc3C(=O)NS(=O)(=O)c3ccc(OCC4CCOCC4)c(Cl)c3)c21` [Example 438, 4-(4-{[2-(4-chlorophenyl)-4,4-dimethylcyclohex-1-en-1-yl]methyl}piperazin-1-yl)-N-{[3-chloro-4-(tetrahydro-2H-pyran-4-ylmethoxy)phenyl]sulfonyl}-2-[(3-methyl-2-oxo-2,3-dihydro-1H-benzimidazol-4-yl)oxy]benzamide], for which the Ki (in general, the equilibrium dissociation constant of an inhibitor or competing ligand from its target) came to 0.031 nM. Compared with the last compound, the Ki is about 24-fold lower.

Take `CC1(C)CCC(CN2CCN(c3ccc(C(=O)NS(=O)(=O)c4ccc(OCC5(F)CCOCC5)c([N+](=O)[O-])c4)c(Oc4cccc5[nH]nc(N)c45)c3)CC2)=C(c2ccc(Cl)cc2)C1` [Example 429, 2-[(3-amino-1H-indazol-4-yl)oxy]-4-(4-{[2-(4-chlorophenyl)-4,4-dimethylcyclohex-1-en-1-yl]methyl}piperazin-1-yl)-N-({4-[(4-fluorotetrahydro-2H-pyran-4-yl)methoxy]-3-nitrophenyl}sulfonyl)benzamide]: the inhibition constant Ki is below 0.01 nM.

Regarding `CC1(C)CCC(CN2CCN(c3ccc(C(=O)NS(=O)(=O)c4ccc(N[C@H]5CC[C@@H](N6CCOCC6)CC5)c([N+](=O)[O-])c4)c(Oc4cnc(N)c(Cl)c4)c3)CC2)=C(c2ccc(Cl)cc2)C1` [Example 452, 2-[(6-amino-5-chloropyridin-3-yl)oxy]-4-(4-{[2-(4-chlorophenyl)-4,4-dimethylcyclohex-1-en-1-yl]methyl}piperazin-1-yl)-N-[(4-{[cis-4-(morpholin-4-yl)cyclohexyl]amino}-3-nitrophenyl)sulfonyl]benzamide], affinity was put at a Ki of 0.112 nM.

With `CC1(C)CCC(CN2CCN(c3ccc(C(=O)NS(=O)(=O)c4cnc(OCC5(F)CCC(C)(O)CC5)c(Cl)c4)c(Oc4cnc(N)c(Cl)c4)c3)CC2)=C(c2ccc(Cl)cc2)C1` (stereo not drawn) [Example 443, 2-[(6-amino-5-chloropyridin-3-yl)oxy]-N-({5-chloro-6-[(trans-1-fluoro-4-hydroxy-4-methylcyclohexyl)methoxy]pyridin-3-yl}sulfonyl)-4-(4-{[2-(4-chlorophenyl)-4,4-dimethylcyclohex-1-en-1-yl]methyl}piperazin-1-yl)benzamide], the Ki was found to be 0.029 nM.

In turn, `CC1(C)CCC(CN2CCN(c3ccc(C(=O)NS(=O)(=O)c4ccc(NCC5CCOCC5)c([N+](=O)[O-])c4)c(Oc4cccc5[nH]nc(N)c45)c3)CC2)=C(c2ccc(Cl)cc2)C1` [Example 431, 2-[(3-amino-1H-indazol-4-yl)oxy]-4-(4-{[2-(4-chlorophenyl)-4,4-dimethylcyclohex-1-en-1-yl]methyl}piperazin-1-yl)-N-({3-nitro-4-[(tetrahydro-2H-pyran-4-ylmethyl)amino]phenyl}sulfonyl)benzamide] displayed a Ki below 0.01 nM.

Consider `CC1(C)CCC(CN2CCN(c3ccc(C(=O)NS(=O)(=O)c4ccc(NCC5(F)CCOCC5)c([N+](=O)[O-])c4)c(Oc4cccc5[nH]nc(N)c45)c3)CC2)=C(c2ccc(Cl)cc2)C1` [Example 428, 2-[(3-amino-1H-indazol-4-yl)oxy]-4-(4-{[2-(4-chlorophenyl)-4,4-dimethylcyclohex-1-en-1-yl]methyl}piperazin-1-yl)-N-[(4-{[(4-fluorotetrahydro-2H-pyran-4-yl)methyl]amino}-3-nitrophenyl)sulfonyl]benzamide], for which the Ki is below 0.01 nM.

In turn, `CC1(C)CCC(CN2CCN(c3ccc(C(=O)NS(=O)(=O)c4ccc(NCC5CCC6(CC5)COC6)c([N+](=O)[O-])c4)c(Oc4cnc(N)c(Cl)c4)c3)CC2)=C(c2ccc(Cl)cc2)C1` [Example 450, 2-[(6-amino-5-chloropyridin-3-yl)oxy]-4-(4-{[2-(4-chlorophenyl)-4,4-dimethylcyclohex-1-en-1-yl]methyl}piperazin-1-yl)-N-({3-nitro-4-[(2-oxaspiro[3.5]non-7-ylmethyl)amino]phenyl}sulfonyl)benzamide] came in with a Ki below 0.01 nM.

Take `CC1(C)CCC(CN2CCN(c3ccc(C(=O)NS(=O)(=O)c4cnc(OCC5(F)CCC(C)(O)CC5)c(Cl)c4)c(Oc4cnc(N)c(Cl)c4)c3)CC2)=C(c2ccc(Cl)cc2)C1` (stereo not drawn) [Example 444, 2-[(6-amino-5-chloropyridin-3-yl)oxy]-N-({5-chloro-6-[(cis-1-fluoro-4-hydroxy-4-methylcyclohexyl)methoxy]pyridin-3-yl}sulfonyl)-4-(4-{[2-(4-chlorophenyl)-4,4-dimethylcyclohex-1-en-1-yl]methyl}piperazin-1-yl)benzamide]: the affinity, expressed as Ki, was 0.018 nM. In other words, the picomolar range.

With `CO[C@H]1CC[C@H](CNc2ccc(S(=O)(=O)NC(=O)c3ccc(N4CCN(CC5=C(c6ccc(Cl)cc6)CC(C)(C)CC5)CC4)cc3Oc3cccc4[nH]c(=O)n(C)c34)cc2[N+](=O)[O-])CC1` [Example 427, 4-(4-{[2-(4-chlorophenyl)-4,4-dimethylcyclohex-1-en-1-yl]methyl}piperazin-1-yl)-N-[(4-{[(trans-4-methoxycyclohexyl)methyl]amino}-3-nitrophenyl)sulfonyl]-2-[(3-methyl-2-oxo-2,3-dihydro-1H-benzimidazol-4-yl)oxy]benzamide], the Ki is below 0.01 nM.

`CC1(C)CCC(CN2CCN(c3ccc(C(=O)NS(=O)(=O)c4ccc(NC[C@H]5CN(C6COC6)CCO5)c([N+](=O)[O-])c4)c(Oc4cnc(N)c(Cl)c4)c3)CC2)=C(c2ccc(Cl)cc2)C1` [Example 448, 2-[(6-amino-5-chloropyridin-3-yl)oxy]-4-(4-{[2-(4-chlorophenyl)-4,4-dimethylcyclohex-1-en-1-yl]methyl}piperazin-1-yl)-N-{[3-nitro-4-({[(2S)-4-(oxetan-3-yl)morpholin-2-yl]methyl}amino)phenyl]sulfonyl}benzamide] gave a Ki below 0.01 nM.

Compound `CC1(C)CCC(CN2CCN(c3ccc(C(=O)NS(=O)(=O)c4ccc(OC[C@H]5CC[C@@](C)(O)CC5)c([N+](=O)[O-])c4)c(Oc4cnc(N)c(Cl)c4)c3)CC2)=C(c2ccc(Cl)cc2)C1` [Example 436, 2-[(6-amino-5-chloropyridin-3-yl)oxy]-4-(4-{[2-(4-chlorophenyl)-4,4-dimethylcyclohex-1-en-1-yl]methyl}piperazin-1-yl)-N-({4-[(cis-4-hydroxy-4-methylcyclohexyl)methoxy]-3-nitrophenyl}sulfonyl)benzamide] displayed a Ki below 0.01 nM.

`O=C(NS(=O)(=O)c1cnc(OCC2(F)CCOCC2)c(Cl)c1)c1ccc(N2CCN(CC3=C(c4ccc(Cl)cc4)CCN(C(CF)CF)C3)CC2)cc1Oc1cc2cc[nH]c2cc1F` [Example 417, N-({5-chloro-6-[(4-fluorotetrahydro-2H-pyran-4-yl)methoxy]pyridin-3-yl}sulfonyl)-4-(4-{[4-(4-chlorophenyl)-1-(1,3-difluoropropan-2-yl)-1,2,5,6-tetrahydropyridin-3-yl]methyl}piperazin-1-yl)-2-[(6-fluoro-1H-indol-5-yl)oxy]benzamide] displayed a Ki of 6.88 nM.

`CC1(C)CCC(CN2CCN(c3ccc(C(=O)NS(=O)(=O)c4cnc(OCC5(F)CCOCC5)c(Cl)c4)c(Oc4ccc(F)c5[nH]ncc45)c3)CC2)=C(c2ccc(Cl)cc2)C1` [Example 420, N-({5-chloro-6-[(4-fluorotetrahydro-2H-pyran-4-yl)methoxy]pyridin-3-yl}sulfonyl)-4-(4-{[2-(4-chlorophenyl)-4,4-dimethylcyclohex-1-en-1-yl]methyl}piperazin-1-yl)-2-[(7-fluoro-1H-indazol-4-yl)oxy]benzamide] displayed a Ki below 0.01 nM.

As for `CC1(C)CCC(CN2CCN(c3ccc(C(=O)NS(=O)(=O)c4ccc(OCC5(F)CCOCC5)c([N+](=O)[O-])c4)c(Oc4cc(F)cc5[nH]ncc45)c3)CC2)=C(c2ccc(Cl)cc2)C1` [Example 433, 4-(4-{[2-(4-chlorophenyl)-4,4-dimethylcyclohex-1-en-1-yl]methyl}piperazin-1-yl)-2-[(6-fluoro-1H-indazol-4-yl)oxy]-N-({4-[(4-fluorotetrahydro-2H-pyran-4-yl)methoxy]-3-nitrophenyl}sulfonyl)benzamide], the Ki was below 0.01 nM.

In turn, `CC1(C)CCC(CN2CCN(c3ccc(C(=O)NS(=O)(=O)c4cnc(NCC5CCOCC5)c([N+](=O)[O-])c4)c(Oc4cnc(N)c(Cl)c4)c3)CC2)=C(c2ccc(Cl)cc2)C1` [Example 449, 2-[(6-amino-5-chloropyridin-3-yl)oxy]-4-(4-{[2-(4-chlorophenyl)-4,4-dimethylcyclohex-1-en-1-yl]methyl}piperazin-1-yl)-N-({5-nitro-6-[(tetrahydro-2H-pyran-4-ylmethyl)amino]pyridin-3-yl}sulfonyl)benzamide] came in with a Ki below 0.01 nM.

The record behind these values is patent US9029404B2, “Apoptosis-inducing agents for the treatment of cancer and immune and autoimmune diseases” (AbbVie Inc., priority 2008, dated 2015).
